The target in one assay is human FPR2 (Homo sapiens (Human), UniProt P25090). In words: FPR2 cyclic adenosine monophosphate (cAMP) assay in CHO cells overexpressing human FPR2. The format is cell-based. The settings on record: forskolin 5 μM, inhibition of cAMP production, read-out: hFPR2 cAMP2 EC50. The source says:
N-formyl peptide receptors (FPRs) are a family of chemo attractant receptors that facilitate leukocyte response during inflammation. FPRs belong to the seven-transmembrane G protein-coupled receptor superfamily and are linked to inhibitory G-proteins (Gi). Three family members (FPR1, FPR2 and FPR3) have been identified in humans and are predominantly found in myeloid cells with varied distribution and have also been reported in multiple organs and tissues. After agonist binding, the FPRs activate a multitude of physiological pathways, such as intra cellular signaling transduction, Ca^2+ mobilization and transcription. The family interacts with a diverse set of ligands that includes proteins, polypeptides and fatty acid metabolites which activate both pro-inflammatory and pro-resolution downstream responses. […]
FPR2 and FPR1 Cyclic Adenosine Monophosphate (cAMP) Assays. […] The level of intracellular cAMP was determined using the HTRF HiRange cAMP assay reagent kit (Cisbio) according to manufacturer's instruction. […] After a 1-h room temperature incubation, time-resolved fluorescence intensity was measured using the Envision (Perkin-Elmer) at 400 nm excitation and dual emission at 590 nm and 665 nm. […] The potency and activity of a compound to inhibit cAMP production was then determined by fitting to a 4-parametric logistic equation from a plot of cAMP level versus compound concentrations. […]

The target of a further assay is human FPR1 (Homo sapiens (Human), UniProt P21462). In words: FPR1 cyclic adenosine monophosphate (cAMP) assay in CHO cells overexpressing human FPR1. The format is cell-based. The settings on record: forskolin 10 μM, inhibition of cAMP production, read-out: hFPR1 cAMP EC50.

The record followed here is patent US11117861B2, “Phenylpyrrolidinone formyl peptide 2 receptor agonists” (BRISTOL-MYERS SQUIBB COMPANY, priority 2018, dated 2021).

Sequence of human FPR1 (P21462 whole entry): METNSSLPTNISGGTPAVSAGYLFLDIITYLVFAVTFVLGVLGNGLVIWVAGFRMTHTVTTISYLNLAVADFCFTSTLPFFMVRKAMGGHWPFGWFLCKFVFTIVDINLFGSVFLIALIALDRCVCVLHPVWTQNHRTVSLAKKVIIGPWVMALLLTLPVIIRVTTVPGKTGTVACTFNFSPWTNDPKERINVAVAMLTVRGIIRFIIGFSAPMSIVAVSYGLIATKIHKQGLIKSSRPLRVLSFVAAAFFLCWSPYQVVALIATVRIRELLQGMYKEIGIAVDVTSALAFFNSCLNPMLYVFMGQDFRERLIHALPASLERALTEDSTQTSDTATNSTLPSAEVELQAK
Sequence of human FPR2 (P25090 whole entry): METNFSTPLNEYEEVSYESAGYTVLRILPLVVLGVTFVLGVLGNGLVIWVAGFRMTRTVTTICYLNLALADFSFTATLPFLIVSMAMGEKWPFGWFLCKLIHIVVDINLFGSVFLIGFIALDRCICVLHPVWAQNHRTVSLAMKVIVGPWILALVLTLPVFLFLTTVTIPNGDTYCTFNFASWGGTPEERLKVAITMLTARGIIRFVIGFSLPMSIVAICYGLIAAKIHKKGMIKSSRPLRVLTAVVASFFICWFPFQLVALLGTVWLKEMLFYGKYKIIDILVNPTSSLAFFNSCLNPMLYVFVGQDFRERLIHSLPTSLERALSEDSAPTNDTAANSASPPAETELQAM
Method for human FPR1: FPR2 and FPR1 Cyclic Adenosine Monophosphate (cAMP) Assays were used to measure the activity of the compounds in this patent.
A mixture of forskolin (5 μM final for FPR2 or 10 μM final for FPR1) and IBMX (200 μM final) were added to 384-well Proxiplates (Perkin-Elmer) pre-dotted with test compounds in DMSO (1% final) at final concentrations in the range of 0.020 nM to 100 μM. Chinese Hamster Ovary cells (CHO) overexpressing human FPR1 or human FPR2 receptors were cultured in F-12 (Ham's) medium supplemented with 10% qualified FBS, 250 μg/ml zeocin and 300 μg/ml hygromycin (Life Technologies). Reactions were initiated by adding 2,000 human FPR2 cells per well or 4,000 human FPR1 cells per well in Dulbecco's PBS (with calcium and magnesium) (Life Technologies) supplemented with 0.1% BSA (Perkin-Elmer). The reaction mixtures were incubated for 30 min at room temperature. The level of intracellular cAMP was determined using the HTRF HiRange cAMP assay reagent kit (Cisbio) according to manufacturer's instruction. Solutions of cryptate conjugated anti-cAMP and d2 flurorophore-labelled cAMP were made in a supplied lysis buffer separately. […] The potency and activity of a compound to inhibit cAMP production was then determined by fitting to a 4-parametric logistic equation from a plot of cAMP level versus compound concentrations.

Consider `COc1c(-c2ccccc2CO)ccc(N2CC[C@@H](NC(=O)Nc3ccc(Cl)cc3F)C2=O)c1F` [Example 35], for which the EC50 amounted to 8.6 nM on human FPR2 and 52 nM at human FPR1.
